Results reported in PMC4114247 (Cancer research, 2009).

Assays:
[1] = target: PSMA on human prostate cancer LNCaP cells (Homo sapiens, UniProt Q04609); test: Saturation binding analysis on LNCaP cells
[2] = target: NAALADase activity of PSMA (Homo sapiens, UniProt Q04609); test: NAALADase inhibition in LNCaP cell lysates; format: biochemical
Sequence of NAALADase activity of PSMA (Q04609 whole entry): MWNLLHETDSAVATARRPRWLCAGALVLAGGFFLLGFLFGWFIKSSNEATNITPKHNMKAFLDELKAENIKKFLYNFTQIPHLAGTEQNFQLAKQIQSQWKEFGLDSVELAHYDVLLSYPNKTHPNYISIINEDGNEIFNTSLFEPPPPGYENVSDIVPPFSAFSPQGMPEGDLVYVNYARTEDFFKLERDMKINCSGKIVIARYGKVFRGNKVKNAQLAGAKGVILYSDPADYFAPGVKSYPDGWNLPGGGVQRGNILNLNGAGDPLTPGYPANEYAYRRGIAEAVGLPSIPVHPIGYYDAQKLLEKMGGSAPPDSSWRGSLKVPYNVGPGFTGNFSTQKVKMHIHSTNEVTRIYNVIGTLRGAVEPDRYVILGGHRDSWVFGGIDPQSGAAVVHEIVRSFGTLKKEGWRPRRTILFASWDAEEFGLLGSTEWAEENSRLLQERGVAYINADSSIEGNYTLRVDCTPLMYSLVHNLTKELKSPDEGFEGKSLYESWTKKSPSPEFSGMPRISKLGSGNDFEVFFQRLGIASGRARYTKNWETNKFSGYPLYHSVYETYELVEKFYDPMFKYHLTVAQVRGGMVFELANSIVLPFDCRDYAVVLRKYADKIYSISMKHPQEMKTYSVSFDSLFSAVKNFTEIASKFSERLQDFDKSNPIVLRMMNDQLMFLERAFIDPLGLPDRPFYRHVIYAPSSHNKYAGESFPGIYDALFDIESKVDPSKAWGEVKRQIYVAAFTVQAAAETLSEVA

Sequence of PSMA on human prostate cancer LNCaP cells (Q04609 whole entry): as above

O=C(O)CC[C@H](NC(=O)N[C@@H](CCCCNCc1ccc(I)cc1)C(=O)O)C(=O)O [MIP-1072, (S)-2-(3-((S)-1-carboxy-5-(4–iodobenzylamino)pentyl)ureido)pentanedioic acid]
Kd [1]: 3.8 ± 1.3 nM | Ki [2]: 4.6 ± 1.6 nM

O=C(O)CC[C@H](NC(=O)N[C@@H](CCCCNC(=O)Nc1ccc(I)cc1)C(=O)O)C(=O)O [MIP-1095, (S)-2-(3-((S)-1-carboxy-5-(3-(4-iodophenyl)ureido)pentyl)ureido)pentanedioic acid]
Kd [1]: 0.81 ± 0.39 nM | Greater affinity of MIP-1095 over MIP-1072 ([1]; saturation binding and NAALADase inhibition studies): approximately 5 fold
